According to PMC8537445, “D-Peptide-Based Probe for CXCR4-Targeted Molecular Imaging and Radionuclide Therapy” (Pharmaceutics, 2021):
Like-named read-outs stand apart in the source and are kept apart here. Positions of bridges follow the written chain, without caps; N, C: chain ends. Non-standard residues stand in square brackets, D forms with d. Residues, ends and D or L forms follow the SMILES beside them. Chains are numbered I, II in the order given. *: point of attachment. NOTA = O=C(O)CN1CCN(CC(=O)O)CCN(CC(=O)*)CC1

Assay: Ex vivo biodistribution in U87.hCXCR4 tumor-bearing mice
Set-up: species or system mouse
Settings: female, SCID (CB17.Cg-Prkdc<scid>Lyst<bg-J>/Crl), mouse, iv, total radioactivity, 75 min p.i., mean ± SD; for tissue to tissue ratio at 1.25 h: SUV ratio

CC(C)C[C@@H](N)C(=O)NCC(=O)N[C@H](C)C(=O)N[C@H](CO)C(=O)N[C@H](Cc1c[nH]c2ccccc12)C(=O)N[C@H](Cc1c[nH]cn1)C(=O)N[C@H](CCCNC(=N)N)C(=O)N1CCC[C@@H]1C(=O)N[C@H](CC(=O)O)C(=O)N[C@H](CCCCNC(=O)CN1CCN(CC(=O)O)CCN(CC(=O)O)CC1)C(=O)NCCCC[C@@H](NC(=O)[C@H]1CCCN1C(=O)[C@@H](CC(C)C)NC(=O)[C@H]1CCCN1C(=O)[C@@H](CCCNC(=N)N)NC(=O)[C@@H](CCCCN)NC(=O)[C@@H](CCC(N)=O)NC(=O)[C@@H](Cc1ccc(O)cc1)NC(=O)CNC(=O)[C@@H](CC(C)C)NC(=O)[C@@H](CS)NC(=O)[C@@H](CS)NC(=O)[C@@H](CCCCN)NC(=O)[C@@H](CC(=O)O)NC(=O)[C@H]1CCCN1C(=O)[C@@H](CCCNC(=N)N)NC(=O)[C@@H](Cc1c[nH]cn1)NC(=O)[C@@H](Cc1c[nH]c2ccccc12)NC(=O)[C@@H](CO)NC(=O)[C@@H](C)NC(=O)CNC(=O)[C@H](N)CC(C)C)C(=O)O [[^18F]AlF-NOTA-DV1-k-(DV3)] (I: H-[dL]G[dA][dS][dW][dH][dR][dP][dD][dK][dC][dC][dL]G[dY][dQ][dK][dR][dP][dL][dP][dK]-OH / II: H-[dL]G[dA][dS][dW][dH][dR][dP][dD][dK](NOTA); amide I:22-II:C)
SUV at 1.25 h (kidneys, co-injected AMD3100 5 mg/kg (157 nmol), n = 4, read-out: kidneys uptake): 47.5 ± 3.1 SUV | SUV at 1.25 h (kidneys, co-injected DV1-k-(DV3) 7 nmol, n = 3, read-out: kidneys uptake): 39.2 ± 7.6 SUV | SUV at 1.25 h (kidneys, co-injected DV1-k-(DV3) 14 nmol, n = 4, read-out: kidneys uptake): 33.6 ± 12.4 SUV | SUV at 1.25 h (kidneys, co-injected DV1-k-(DV3) 24 nmol, n = 4, read-out: kidneys uptake): 36.1 ± 5.9 SUV | SUV at 1.25 h (kidneys, tracer alone (0 nmol), n = 4, read-out: kidneys uptake): 26.5 ± 6 SUV | SUV at 1.25 h (liver, co-injected AMD3100 5 mg/kg (157 nmol), n = 4, read-out: liver uptake): 0.9 ± 0.3 SUV | SUV at 1.25 h (liver, tracer alone (0 nmol), n = 4, read-out: liver uptake): 8.2 ± 1 SUV | SUV at 1.25 h (liver, with unlabelled DV1-k-(DV3) 7 nmol, co-injected, co-injected DV1-k-(DV3) 7 nmol, n = 3, read-out: liver uptake): 1.2 ± 0.1 SUV | SUV at 1.25 h (liver, with unlabelled DV1-k-(DV3) 14 nmol, co-injected, co-injected DV1-k-(DV3) 14 nmol, n = 4, read-out: liver uptake): 1.2 ± 0.4 SUV | SUV at 1.25 h (liver, with unlabelled DV1-k-(DV3) 24 nmol, co-injected, co-injected DV1-k-(DV3) 24 nmol, n = 4, read-out: liver uptake): 0.7 ± 0.1 SUV | SUV at 1.25 h (lungs, co-injected AMD3100 5 mg/kg (157 nmol), n = 4, read-out: lungs uptake): 0.5 ± 0.1 SUV | SUV at 1.25 h (lungs, co-injected DV1-k-(DV3) 7 nmol, n = 3, read-out: lungs uptake): 0.7 ± 0.2 SUV | SUV at 1.25 h (lungs, co-injected DV1-k-(DV3) 14 nmol, n = 4, read-out: lungs uptake): 0.9 ± 0.3 SUV | SUV at 1.25 h (lungs, co-injected DV1-k-(DV3) 24 nmol, n = 4, read-out: lungs uptake): 0.6 ± 0.2 SUV | SUV at 1.25 h (lungs, tracer alone (0 nmol), n = 4, read-out: lungs uptake): 0.6 ± 0.2 SUV | SUV at 1.25 h (muscle, co-injected DV1-k-(DV3) 7 nmol, n = 3, read-out: muscle uptake): 0.2 ± 0.1 SUV | SUV at 1.25 h (muscle, co-injected DV1-k-(DV3) 14 nmol, n = 4, read-out: muscle uptake): 0.2 ± 0.1 SUV | SUV at 1.25 h (muscle, co-injected DV1-k-(DV3) 24 nmol, n = 4, read-out: muscle uptake): 0.2 ± 0.1 SUV | SUV at 1.25 h (muscle, tracer alone (0 nmol), n = 4, read-out: muscle uptake): 0.05 ± 0.02 SUV | SUV at 1.25 h (muscle, with AMD3100 5 mg/kg (157 nmol), co-injected, co-injected AMD3100 5 mg/kg (157 nmol), n = 4, read-out: muscle uptake): 0.1 ± 0.1 SUV | SUV at 1.25 h (pancreas, co-injected AMD3100 5 mg/kg (157 nmol), n = 4, read-out: pancreas uptake): 0.1 ± 0.1 SUV | SUV at 1.25 h (pancreas, co-injected DV1-k-(DV3) 7 nmol, n = 3, read-out: pancreas uptake): 0.1 ± 0.04 SUV | SUV at 1.25 h (pancreas, co-injected DV1-k-(DV3) 14 nmol, n = 4, read-out: pancreas uptake): 0.2 ± 0.1 SUV | SUV at 1.25 h (pancreas, co-injected DV1-k-(DV3) 24 nmol, n = 4, read-out: pancreas uptake): 0.1 ± 0.03 SUV | SUV at 1.25 h (pancreas, tracer alone (0 nmol), n = 4, read-out: pancreas uptake): 0.06 ± 0.02 SUV | SUV at 1.25 h (spleen, co-injected AMD3100 5 mg/kg (157 nmol), n = 4, read-out: spleen uptake): 0.5 ± 0.1 SUV | SUV at 1.25 h (spleen, co-injected DV1-k-(DV3) 7 nmol, n = 3, read-out: spleen uptake): 0.5 ± 0.1 SUV | SUV at 1.25 h (spleen, co-injected DV1-k-(DV3) 14 nmol, n = 4, read-out: spleen uptake): 0.6 ± 0.2 SUV | SUV at 1.25 h (spleen, co-injected DV1-k-(DV3) 24 nmol, n = 4, read-out: spleen uptake): 0.4 ± 0.1 SUV | SUV at 1.25 h (spleen, tracer alone (0 nmol), n = 4, read-out: spleen uptake): 2.5 ± 1 SUV | tissue to tissue ratio at 1.25 h (tumor / blood, tracer alone (0 nmol), n = 4, read-out: tumor-to-blood ratio (t/blood)): 4.6 ± 0.9 | tissue to tissue ratio at 1.25 h (tumor / liver, tracer alone (0 nmol), n = 4, read-out: tumor-to-liver ratio (t/liver)): 0.1 ± 0.02 | tissue to tissue ratio at 1.25 h (tumor / liver, with unlabelled DV1-k-(DV3) 24 nmol, co-injected, co-injected DV1-k-(DV3) 24 nmol, n = 4, read-out: tumor-to-liver ratio (t/liver)): 0.9 ± 0.2 | tissue to tissue ratio at 1.25 h (tumor / muscle, tracer alone (0 nmol), n = 4, read-out: tumor-to-muscle ratio (t/muscle)): 12.4 ± 2.9 | tissue to tissue ratio at 1.25 h (tumor / muscle, with AMD3100 5 mg/kg (157 nmol), co-injected, co-injected AMD3100 5 mg/kg (157 nmol), n = 4, read-out: tumor-to-muscle ratio (t/muscle)): 4.2 ± 1.1 | tissue to tissue ratio at 1.25 h (tumor / muscle, with unlabelled DV1-k-(DV3) 7 nmol, co-injected, co-injected DV1-k-(DV3) 7 nmol, n = 3, read-out: tumor-to-muscle ratio (t/muscle)): 5.4 ± 2.2 | tissue to tissue ratio at 1.25 h (tumor / muscle, with unlabelled DV1-k-(DV3) 14 nmol, co-injected, co-injected DV1-k-(DV3) 14 nmol, n = 4, read-out: tumor-to-muscle ratio (t/muscle)): 4.8 ± 2.1 | tissue to tissue ratio at 1.25 h (tumor / muscle, with unlabelled DV1-k-(DV3) 24 nmol, co-injected, co-injected DV1-k-(DV3) 24 nmol, n = 4, read-out: tumor-to-muscle ratio (t/muscle)): 3 ± 0.4 | SUV at 1.25 h (tumor, tracer alone (0 nmol), n = 4, read-out: tumor uptake): 0.6 ± 0.2 SUV | SUV at 1.25 h (tumor, with AMD3100 5 mg/kg (157 nmol), co-injected, co-injected AMD3100 5 mg/kg (157 nmol), n = 4, read-out: tumor uptake): 0.4 ± 0.2 SUV | SUV at 1.25 h (tumor, with unlabelled DV1-k-(DV3) 7 nmol, co-injected, co-injected DV1-k-(DV3) 7 nmol, n = 3, read-out: tumor uptake): 0.7 ± 0.1 SUV | SUV at 1.25 h (tumor, with unlabelled DV1-k-(DV3) 14 nmol, co-injected, co-injected DV1-k-(DV3) 14 nmol, n = 4, read-out: tumor uptake): 0.9 ± 0.3 SUV | SUV at 1.25 h (tumor, with unlabelled DV1-k-(DV3) 24 nmol, co-injected, co-injected DV1-k-(DV3) 24 nmol, n = 4, read-out: tumor uptake): 0.6 ± 0.2 SUV | tissue to tissue ratio at 1.25 h (tumor/blood, co-injected DV1-k-(DV3) 7 nmol, n = 3, read-out: tumor-to-blood ratio (t/blood)): 2.2 ± 0.9 | tissue to tissue ratio at 1.25 h (tumor/blood, co-injected DV1-k-(DV3) 14 nmol, n = 4, read-out: tumor-to-blood ratio (t/blood)): 2 ± 0.9 | tissue to tissue ratio at 1.25 h (tumor/blood, co-injected DV1-k-(DV3) 24 nmol, n = 4, read-out: tumor-to-blood ratio (t/blood)): 1.8 ± 0.3 | tissue to tissue ratio at 1.25 h (tumor/bone, co-injected AMD3100 5 mg/kg (157 nmol), n = 4, read-out: tumor-to-bone ratio (t/bone)): 2.6 ± 0.7 | tissue to tissue ratio at 1.25 h (tumor/bone, co-injected DV1-k-(DV3) 7 nmol, n = 3, read-out: tumor-to-bone ratio (t/bone)): 2.9 ± 0.3 | tissue to tissue ratio at 1.25 h (tumor/bone, co-injected DV1-k-(DV3) 14 nmol, n = 4, read-out: tumor-to-bone ratio (t/bone)): 3.2 ± 0.4 | tissue to tissue ratio at 1.25 h (tumor/bone, co-injected DV1-k-(DV3) 24 nmol, n = 4, read-out: tumor-to-bone ratio (t/bone)): 3.3 ± 0.5 | tissue to tissue ratio at 1.25 h (tumor/bone, tracer alone (0 nmol), n = 4, read-out: tumor-to-bone ratio (t/bone)): 1.4 ± 0.5 | tissue to tissue ratio at 1.25 h (tumor/liver, co-injected AMD3100 5 mg/kg (157 nmol), n = 4, read-out: tumor-to-liver ratio (t/liver)): 0.5 ± 0.2 | tissue to tissue ratio at 1.25 h (tumor/liver, co-injected DV1-k-(DV3) 7 nmol, n = 3, read-out: tumor-to-liver ratio (t/liver)): 0.6 ± 0.1 | tissue to tissue ratio at 1.25 h (tumor/liver, co-injected DV1-k-(DV3) 14 nmol, n = 4, read-out: tumor-to-liver ratio (t/liver)): 0.8 ± 0.2 | tissue to tissue ratio at 1.25 h (tumor/spleen, co-injected AMD3100 5 mg/kg (157 nmol), n = 4, read-out: tumor-to-spleen ratio (t/spleen)): 0.7 ± 0.2 | tissue to tissue ratio at 1.25 h (tumor/spleen, co-injected DV1-k-(DV3) 7 nmol, n = 3, read-out: tumor-to-spleen ratio (t/spleen)): 1.4 ± 0.1 | tissue to tissue ratio at 1.25 h (tumor/spleen, co-injected DV1-k-(DV3) 14 nmol, n = 4, read-out: tumor-to-spleen ratio (t/spleen)): 1.4 ± 0.1 | tissue to tissue ratio at 1.25 h (tumor/spleen, co-injected DV1-k-(DV3) 24 nmol, n = 4, read-out: tumor-to-spleen ratio (t/spleen)): 1.6 ± 0.3 | tissue to tissue ratio at 1.25 h (tumor/spleen, tracer alone (0 nmol), n = 4, read-out: tumor-to-spleen ratio (t/spleen)): 0.3 ± 0.1
